Experimental data as given in patent US10786445B2 (BIOGEN CHESAPEAKE LLC, priority 2010, dated 2020).
Values joined by “and” are separate entries in the source; they are usually repeats but may differ in a detail not shown here. Equal entries are not always repeated. Where two headings read alike, the source gives them in different places. Marks after values point to notes of the source that are not given here.

How the values were obtained:
[1] = cited from earlier work
[2] = Study 101 Phase 1: plasma glyburide pharmacokinetics, bolus plus 72 h continuous infusion of RP-1127; format: in vivo, human
Experimental: All plasma concentration data were analyzed by nonlinear regression, simultaneously incorporating drug behavior during and after the infusion.

[3] = Pharmacokinetics of glyburide after intravenous administration (published studies); format: in vivo, human
Source text: All patents and publications discussed herein are hereby incorporated by reference in their entireties.

[4] = Study 101 Phase 1: serum ALT and AST; format: in vivo, human; conditions: subject receiving 6 mg/day, treated with 4,309 calories over 24 hours, two thirds carbohydrates
[5] = Preclinical experiments: filtering concentrated reconstituted glyburide, dilution into PVC-free bag; format: physicochemical
Experimental: In these experiments, the filtered material was diluted into a PVC-free bag (for example, the B Braun EXCEL L8000).
Patients in need of glyburide treatment include patients suffering from stroke, such as acute stroke (ischemic and hemorrhagic), traumatic brain injury (TBI), spinal cord injury (SCI), myocardial infarction (MI), shock (including hemorrhagic shock), organ ischemia, ventricular arrhythmias, ischemic injury; hypoxia/ischemia; and other injuries, conditions, and disorders.

[6] = tested on: blood glucose; experiment: Study 101 Phase 1: blood glucose / hypoglycemia; conditions: for Effect on median blood glucose levels: FIG. 5; for Time at which dosing was stopped early due to the hypoglycemic effect: planned 72 h infusion
Experimental: Blood glucose was measured throughout the study, both to obtain pharmacodynamic information as well as for safety reasons. The dosing regimen was a bolus over 2 minutes followed by a continuous infusion for 72 hours.

[7] = In-use stability testing of glyburide solutions (PVC contact, in-line filter, flushing protocols); format: physicochemical
Source text: One possible explanation is that glyburide adsorbs to PVC.

[8] = Jonsson et al. 2000, healthy males and females, data from Caucasian patients, N 10, i.v. dose 2.0 mg
[9] = McEwen et al. 1982, healthy males, N 20, i.v. dose 1.48 mg
[10] = Morrison et al. 1982, healthy males and females, N 8, i.v. dose 2.4 mg
[11] = Neugebauer et al. 1985, NIDDM males and females, N 20, i.v. dose 1.25 mg
[12] = Rogers et al. 1982, healthy males and females, N 8, i.v. dose 1 mg
[13] = Sorgel et al. 1997, healthy males, N 24, i.v. dose 1.5 mg
[14] = 0.4 mg/day, limit of detection 0.5 ng/mL
[15] = Study 101, 0.4 and 3.0 mg/day (N = 26), nonlinear regression
[16] = both sexes, human, in vivo, iv, Morrison et al. 1982, healthy males and females, N 8, i.v. dose 2.4 mg
[17] = both sexes, human, in vivo, iv, Neugebauer et al. 1985, NIDDM males and females, N 20, i.v. dose 1.25 mg
[18] = both sexes, human, in vivo, iv, Rydberg et al. 1995, healthy males and females, N 8, i.v. dose 1.0 mg, normalized to 70 kg
[19] = male, human, in vivo, iv, McEwen et al. 1982, healthy males, N 20, i.v. dose 1.48 mg

## COc1ccc(Cl)cc1C(=O)NCCc1ccc(S(=O)(=O)NC(=O)NC2CCCCC2)cc1 [Glyburide, 5-chloro-N-(4-[N-(cyclohexylcarbamoyl)sulfamoyl]phenethyl)-2-methoxybenzamide]
[1]; Groop et al. 1987, bolus dose followed by continuous i.v. infusion
  mean glyburide Cmax after administration of the bolus: 240 ng/mL
[1]; [8]
  Cmax: 196 ng/mL
  clearance: 101.3 mL/min
  t1/2: 1.15 h
[1]; [9]
  Beta: 0.3 h⁻¹
  clearance: 49 mL/min
  t1/2: 2.46 h
[1]; [10]
  Beta: 0.62 h⁻¹
  Cmax: 648 ng/mL
  Vd: 7.4 L
  clearance: 73.7 mL/min
[1]; [11]
  Beta: 0.38 h⁻¹
  Cmax: 376 ng/mL
  clearance: 73.5 mL/min
  t1/2: 1.82 h
[1]; [12]
  Beta: 0.517 h⁻¹
  t1/2: 1.47 h
[1]; Rydberg et al. 1995, healthy males and females, N 8, i.v. dose 1.0 mg
  t1/2: 1.47 ± 0.42 h
[1]; [13]
  Cmax: 331 ± 65 ng/mL
  Tmax: 5.4 min
  Vd: 11.22 ± 3 L
  clearance: 74.7 ± 22 mL/min
  t1/2: 4.22 ± 1 h
[1]; Spraul et al. 1989, healthy males and females, N 52, i.v. dose 4.0 mg
  t1/2: 1.50 ± 0.36 h
[1]; range over studies: Rogers et al. 1982, Groop et al. 1987, Bank et al. 2000, Jonsson et al. 2000
  Maximum glyburide plasma concentrations: 200 to 436 ng/mL
[2]; 17.3 μg bolus plus 0.4 mg/day, 72 h infusion
  mean steady state glyburide concentration (Css): 3.8 ng/mL
[2]; 130 μg bolus plus 3 mg/day, 72 h infusion
  mean Css: 25.3 ng/mL
[2]; 0.4 mg/day
  Mean glyburide plasma level at treatment cessation: 4.4 ng/mL
  Reduction of mean glyburide plasma levels within one hour of treatment cessation: 54%
[2]; [14]
  Hour by which plasma levels were below the limits of detection in 50% of the patients: ≤ 76 h
  Hour by which plasma levels were below the limits of detection in 100% of patients: ≤ 96 h
[2]; 3 mg/day
  Hour by which plasma levels were below the limits of detection in 50% of the subjects: ≤ 84 h
  Hour by which plasma levels were below the limits of detection in 100% of patients: ≤ 96 h
  Mean glyburide plasma level at cessation of dosing: 27.3 ng/mL
  Reduction of mean glyburide plasma levels within 1 hour of cessation of dosing: 57%
[2]; Study 101
  Dependence of pharmacokinetic parameters on covariates: independent of dose, weight, height, body surface area, gender and age
[2]; Study 101, 0.4 and 3.0 mg/day (N = 26)
  clearance: 54 mL/min/m^2
[2]; [15]
  T1/2α: 0.44 h
  T1/2β: 3.31 h
[2]; Study 101, bolus plus continuous infusion
  Time to steady state following bolus administration: 8 to 20 h
[2]; Study 101, drop following the initial bolus loading dose
  Time of minimum plasma glyburide concentration after commencement of dosing (median): 1.25 to 1.5 h
[2]; both sexes, human, plasma, intravenous, 17.3 μg bolus plus 0.4 mg/day, 72 h infusion
  Cmax: 7.2 ng/mL
[2]; both sexes, human, plasma, intravenous, 0.4 mg/day
  concentration at 1 h after treatment cessation: 2 ng/mL
[2]; both sexes, human, plasma, intravenous, 3 mg/day
  concentration at 1 h after cessation of dosing: 11.9 ng/mL
[2]; both sexes, human, plasma, intravenous, Study 101, 0.4 and 3.0 mg/day (N = 26), read-out: Clearance
  clearance: 95 mL/min and 1.44 mL/min/kg
[2]; human, plasma, intravenous, 130 μg bolus plus 3 mg/day, 72 h infusion, one patient, read-out: Cmax (of all individual subjects)
  Cmax: 50.7 ng/mL
[2]; human, plasma, intravenous, 433 μg bolus plus 10 mg/day, single subject, at hour 2 (BG below 70 mg/dL)
  concentration at 2 h: 57.9 ng/mL
[2]; human, plasma, intravenous, 6 mg/day, single subject, at H12 (BG 68 mg/dL)
  concentration at 12 h: 64 ng/mL
[3]; Rydberg et al. 1995, healthy males and females, N 8, i.v. dose 1.0 mg, normalized to 70 kg
  Beta: 0.52*‡ 1/h
[3]; [16]
  clearance: 73.7 mL/min
  half-life: 1.18 h
[3]; [17]
  Vd: 11.6 L
  clearance: 73.5 mL/min
[3]; [18]
  Vd: 10.9 L
  clearance: 91 mL/min
[3]; both sexes, human, plasma, iv, Jonsson et al. 2000, healthy males and females, data from Caucasian patients, N 10, i.v. dose 2.0 mg
  clearance: 28 mL/min
[3]; [19]
  Vd: 9.7 L
  clearance: 48.7 mL/min
[4]
  ALT and AST: transient elevations in ALT and AST
[5]; 0.2 micron filter, at least about 10 μg/mL, preferably about 0.5-1 mg/mL or greater
  Effect of filtering on glyburide concentration: does not significantly decrease the glyburide concentration
[5]; filter 1 mg/mL concentrate, dilute into PVC-free bag, unfiltered polyethylene lined tubing
  Loss of glyburide from glyburide solutions: effective to reduce the loss of glyburide
[6]; 0.4 mg/day vs placebo
  Effect on median blood glucose levels: very minor but visible effect on BG
[6]; 433 μg bolus plus 10 mg/day, single subject
  Symptoms of hypoglycemia: classic symptoms of hypoglycemia but was always alert, oriented and conversant
[6]; 433 μg bolus plus 10 mg/day, single subject, H12-H22
  blood glucose levels: 52 to 53 mg/dL
[6]; 433 μg bolus plus 10 mg/day, single subject, hour 2
  BG: below 70 mg/dL
[6]; 433 μg bolus plus 10 mg/day, single subject, hour 22
  morning serum glucose: below 50 mg/dL
[6]; 3.0 mg/day vs placebo
  Effect on median blood glucose levels: more pronounced effect, without hypoglycemia
[6]; 6 mg/day delivered as continuous infusion
  Hypoglycemia: severe hypoglycemia occurred
[6]; 6 mg/day
  Time at which dosing was stopped early due to the hypoglycemic effect: around 32 hours
[6]; 6 mg/day, single subject, H0 to H8
  blood glucose levels: above 70 mg/dL
[6]; 6 mg/day, single subject, after IV dextrose (10%) 100 cc/hour from approximately H29
  blood glucose: 64 to 123 mg/dL
[6]; 6 mg/day, single subject, approximately H13.3, lasted 15 minutes
  Signs of hypoglycemia: signs of hypoglycemia in the form of sweating (diaphoresis) and hunger
[6]; 6 mg/day, single subject, at H12
  BG: 68 mg/dL
[6]; 10 mg/day delivered as continuous infusion
  Hypoglycemia: severe hypoglycemia occurred
[6]; 10 mg/day
  Time at which dosing was stopped early due to the hypoglycemic effect: around 24 hours
[7]; 10 μg/mL glyburide, PVC bag but not PVC tubing
  loss of glyburide in standard PVC bag: acceptable amount of loss of glyburide
[7]; 0.2 micron in-line filter
  glyburide concentration after passage through a filter: reduced
[7]; all components and flushing protocols
  reduction in glyburide passing through the full chain of components: less than 10%
[7]; glyburide concentrations below 10 μg/mL
  glyburide concentration on storage in PVC bags: reduced
[7]; solution passed through PVC tubing or stored in a PVC bag
  glyburide concentration on contact with polyvinyl chloride (PVC): reduced
